This note sets out measurements from ChEMBL document CHEMBL1201862, “PubChem BioAssay data set” (2004).

For orientation: AC50 means the concentration at which the activity in the assay is half-maximal.

SMILES strings stand for the structures. Calls of active or inactive are those of the source.

The test system of assay [1] is HEK293. Put plainly: cells. The class given is functional, cell-based. Conditions: Homo sapiens.
Assay [2] addresses T1, Nuclear receptor subfamily 0 group B member 1 (Homo sapiens, UniProt P51843).
T1 sequence (P51843 whole entry): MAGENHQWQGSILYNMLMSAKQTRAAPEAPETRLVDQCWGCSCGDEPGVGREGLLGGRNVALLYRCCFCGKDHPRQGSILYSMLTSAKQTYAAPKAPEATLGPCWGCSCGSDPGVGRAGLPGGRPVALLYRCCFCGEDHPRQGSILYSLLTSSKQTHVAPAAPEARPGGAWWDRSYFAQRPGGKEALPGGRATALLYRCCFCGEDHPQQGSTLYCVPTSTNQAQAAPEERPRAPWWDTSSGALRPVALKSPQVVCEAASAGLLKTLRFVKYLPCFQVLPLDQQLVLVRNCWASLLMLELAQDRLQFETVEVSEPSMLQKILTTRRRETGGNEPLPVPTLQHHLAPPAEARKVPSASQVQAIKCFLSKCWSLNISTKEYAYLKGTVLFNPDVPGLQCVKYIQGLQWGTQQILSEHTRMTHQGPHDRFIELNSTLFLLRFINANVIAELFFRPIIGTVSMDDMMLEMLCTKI
Put plainly: Luminescence-based cell-based high throughput dose response assay for inhibitors of the orphan nuclear receptor subfamily 0, group B, member 1 (DAX1; NR0B1). [Related pubchem assays (depositor defined):AID504766, AID504790]. The class given is functional.

In another assay the target is Beta-galactosidase (Escherichia coli, UniProt Q8VNN2). Kind of assay: PubChem AID 485352. The class given is functional.
Assay [3] has as its target Type-1 angiotensin II receptor (Homo sapiens, UniProt P30556). Put plainly: AT1 receptor antagonists, dose response, selectivity assay for APJ receptor antagonist project, cell-based, uHTS hits (AID 463214).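 Further: antagonist potency against angiotensin II stimulated AT1 response.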 The class given is functional.
Assay [4] has as its target T2, Corticotropin-releasing factor receptor 2/Corticotropin-releasing factor-binding protein (Homo sapiens, UniProt P24387+Q13324).
T2 sequence (Q13324 whole entry): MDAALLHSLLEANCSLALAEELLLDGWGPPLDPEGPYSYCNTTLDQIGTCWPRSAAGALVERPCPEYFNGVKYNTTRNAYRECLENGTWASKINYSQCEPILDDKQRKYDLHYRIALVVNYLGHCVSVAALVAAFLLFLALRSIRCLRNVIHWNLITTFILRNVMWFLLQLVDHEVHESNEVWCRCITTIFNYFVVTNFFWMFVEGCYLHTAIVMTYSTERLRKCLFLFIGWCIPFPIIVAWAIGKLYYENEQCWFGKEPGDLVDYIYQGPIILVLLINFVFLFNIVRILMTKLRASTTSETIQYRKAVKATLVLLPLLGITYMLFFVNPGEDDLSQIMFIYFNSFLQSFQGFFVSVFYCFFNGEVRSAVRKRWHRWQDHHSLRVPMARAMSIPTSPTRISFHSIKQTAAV
T2 sequence (P24387 whole entry): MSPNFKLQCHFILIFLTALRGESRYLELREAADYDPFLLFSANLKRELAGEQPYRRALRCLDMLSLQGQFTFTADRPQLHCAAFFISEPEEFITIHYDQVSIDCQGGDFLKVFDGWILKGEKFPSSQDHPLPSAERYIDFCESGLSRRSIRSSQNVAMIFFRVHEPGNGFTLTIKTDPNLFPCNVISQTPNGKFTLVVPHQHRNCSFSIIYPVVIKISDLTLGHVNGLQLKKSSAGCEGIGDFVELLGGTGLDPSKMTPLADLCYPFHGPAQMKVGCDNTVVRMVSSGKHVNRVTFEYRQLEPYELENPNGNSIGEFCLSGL
Kind of assay: activators of CRF receptor 2 with binding protein – uHTS hits, confirmation (AID 602473). The class given is functional. Conditions: read-out: EC50_Mean.

Assay [5] has as its target T2, Corticotropin-releasing factor receptor 2/Corticotropin-releasing factor-binding protein. Put plainly: Dose Response confirmation of uHTS hits for small molecule antagonists of the CRF-binding protein and CRF-R2 receptor complex. Conditions: read-out: IC50_Mean. The class given is functional.
The test system of assay [6] is Jurkat. Put plainly: SAR Analysis of small molecule inhibitors of T-cell specific antigen receptor-induced NF-kB activation in a Jurkat cell line using a luminescence assay - Set 2. [Related pubchem assays (depositor defined):AID435003, AID435012, AID465]. The class given is functional, cell-based. Conditions: Homo sapiens.
Assay [7] deals with HEK293. Put plainly: SAR Analysis of small molecule inhibitors of T-cell specific antigen receptor-induced NF-kB activation in a HEK-293T cell line using a luminescence assay - Set 2. [Related pubchem assays (depositor defined):AID435003, AID435012, AID489026]. The class given is functional, cell-based. Conditions: Homo sapiens.
Assay [8] relates to HEK293. Put plainly: cytotoxicity in HEK293T NF-kB-Luc cells, SAR follow-up, cytotoxicity control for NF-kB activator project, cell-based, resazurin fluorescence (AID 493251). The class given is functional. The conditions noted are these: Homo sapiens. On the technique in general: Alamar Blue is a resazurin reagent that responds to reducing activity.
The target in assay [9] is T3, Microphthalmia-associated transcription factor (Homo sapiens, UniProt O75030).
T3 sequence (O75030 whole entry): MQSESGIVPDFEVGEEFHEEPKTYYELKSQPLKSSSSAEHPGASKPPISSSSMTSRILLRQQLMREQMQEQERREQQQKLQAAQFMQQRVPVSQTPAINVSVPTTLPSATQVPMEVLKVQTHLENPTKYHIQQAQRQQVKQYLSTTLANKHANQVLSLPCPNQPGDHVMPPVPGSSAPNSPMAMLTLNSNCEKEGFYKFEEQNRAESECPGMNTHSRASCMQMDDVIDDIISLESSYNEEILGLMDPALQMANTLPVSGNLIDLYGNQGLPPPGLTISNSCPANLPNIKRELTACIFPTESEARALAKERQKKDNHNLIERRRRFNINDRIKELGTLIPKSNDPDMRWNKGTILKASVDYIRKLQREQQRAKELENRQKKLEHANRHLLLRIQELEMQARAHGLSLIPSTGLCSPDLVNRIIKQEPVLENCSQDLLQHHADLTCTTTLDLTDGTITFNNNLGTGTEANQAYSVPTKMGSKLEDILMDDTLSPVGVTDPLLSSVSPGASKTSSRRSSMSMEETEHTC
Put plainly: TRPM1 promoter luciferase signal decrease, dose response, MITF inhibitor project, cell-based, SK-MEL-5, cherry-picked, set 3 (AID 493073).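 Further: SK-MEL-5 melanoma cells with luciferase driven by the MITF target TRPM1 promoter.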 The class given is functional.

Assay [10] deals with Jurkat. Put plainly: antigen receptor-induced NF-kB inhibitors, dose response, Jurkat, luciferase reporter, luminescence, B- and T-cell (AID 489004).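 Further: NF-kB luciferase reporter Jurkat cells stimulated with PMA plus ionomycin.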 The class given is functional, cell-based. The conditions noted are these: Homo sapiens. (In a reporter assay the amount or activity of a reporter protein is the signal.)
In a further assay the target is Procathepsin L (Homo sapiens, UniProt P07711). Kind of assay: cathepsin L inhibitors, dose response, counter-screen for M1/M17 aminopeptidase inhibitor project, biochemical, QFRET, 1536-well (AID 2214). In general terms: The purpose of a counterscreen is to sort out artefacts and off-target activity.
A short description of assay [11]: off-target signal loss in HeLa-CEM21 co-culture – HeLa F-luc CTL cells, cherry-picked, counter-screen for HIV-1 Env fusion inhibitor project, dose response (AID 652040).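 Further: potency for signal decrease marking cytotoxic or nonspecific inhibition.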 The class given is functional, cell-based.
A further assay has as its target T4, Leucine aminopeptidase (Plasmodium falciparum 3D7, UniProt Q8IL11).
T4 sequence (Q8IL11 whole entry): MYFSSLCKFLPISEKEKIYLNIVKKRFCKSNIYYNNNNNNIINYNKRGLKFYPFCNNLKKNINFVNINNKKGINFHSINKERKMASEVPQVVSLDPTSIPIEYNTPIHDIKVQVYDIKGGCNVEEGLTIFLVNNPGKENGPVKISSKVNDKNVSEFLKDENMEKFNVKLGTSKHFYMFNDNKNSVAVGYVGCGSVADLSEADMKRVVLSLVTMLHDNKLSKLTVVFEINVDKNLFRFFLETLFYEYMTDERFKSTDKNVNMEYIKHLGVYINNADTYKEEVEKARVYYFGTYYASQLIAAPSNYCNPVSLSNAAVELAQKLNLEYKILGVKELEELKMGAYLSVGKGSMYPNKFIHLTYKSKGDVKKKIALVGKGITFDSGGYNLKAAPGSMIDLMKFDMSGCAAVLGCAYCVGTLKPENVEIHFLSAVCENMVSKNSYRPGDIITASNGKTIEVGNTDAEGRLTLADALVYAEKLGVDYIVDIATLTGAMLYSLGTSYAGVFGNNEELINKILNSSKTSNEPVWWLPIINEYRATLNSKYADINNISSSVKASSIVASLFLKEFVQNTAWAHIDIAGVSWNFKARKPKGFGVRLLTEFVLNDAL
Kind of assay: P. falciparum M17LAP inhibitors, primary screen, biochemical, fluorogenic H-Leu-NHMec substrate, 1536-well (AID 1619). The class given is functional.

The nature of assay [12]: LGR2 antagonists, dose response, cell-based, HEK293, CRE-luciferase reporter, cherry pick, set 2 (AID 743343).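 Further: transfected cells were stimulated with diluted bursicon conditioned medium after compound addition.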 The class given is functional.
Assay [13] can be described thus: A549 cell cytotoxicity, dose response, cytotoxicity control, plate reader, cherry-pick, antagonist series (AID 743412). The class given is functional, cell-based.
Assay [14] is described as follows: cytotoxicity in HEK-293T NF-kB-Luc cells, dose response, cytotoxicity control for B/T-cell NF-kB inhibitor project, cell-based, uHTS hits (AID 489019).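 Further: IC50 reflects cytotoxicity as loss of cell viability.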 The class given is functional.
Assay [15] can be described thus: inhibitors of HIV Env-driven cell fusion, dose response, cherry-pick (AID 652057). The class given is functional, cell-based.
A further assay has as its target T5, Aspartyl aminopeptidase (Plasmodium falciparum 3D7, UniProt Q8I2J3).
T5 sequence (Q8I2J3 whole entry): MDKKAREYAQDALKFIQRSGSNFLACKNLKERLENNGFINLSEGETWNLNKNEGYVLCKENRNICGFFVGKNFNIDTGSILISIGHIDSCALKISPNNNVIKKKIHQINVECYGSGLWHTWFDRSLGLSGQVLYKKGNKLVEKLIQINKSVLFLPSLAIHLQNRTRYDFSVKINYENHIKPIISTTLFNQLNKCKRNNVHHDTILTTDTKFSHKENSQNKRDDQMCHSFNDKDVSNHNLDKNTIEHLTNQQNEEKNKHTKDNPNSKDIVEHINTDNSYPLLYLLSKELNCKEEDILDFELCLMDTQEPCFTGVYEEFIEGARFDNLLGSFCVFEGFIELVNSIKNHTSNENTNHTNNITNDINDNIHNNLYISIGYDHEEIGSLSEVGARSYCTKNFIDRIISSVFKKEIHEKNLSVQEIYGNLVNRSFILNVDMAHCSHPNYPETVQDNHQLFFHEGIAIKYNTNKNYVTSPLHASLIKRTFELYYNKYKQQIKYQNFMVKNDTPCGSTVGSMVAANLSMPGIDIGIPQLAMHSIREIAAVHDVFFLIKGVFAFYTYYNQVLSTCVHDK
Kind of assay: Counterscreen for inhibitors of M1 and M17 aminopeptidases: QFRET-based biochemical high throughput dose response assay for inhibitors of the Plasmodium falciparum M18 Aspartyl Aminopeptidase (PFM18AAP). [Related PubChem assays: 1619 (Screening assay (M17LAP inhibitors).), 1445 (Screening assay (M1AAP inhibitors).)].

Assay [16] in a line: inhibitors of clade B AD8 Env fusion, dose response, cell-based, cherry-pick (AID 652062).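 Further: luciferase signal from cell-cell fusion driven by HIV-1 clade B AD8 Env; potency is for inhibitors of fusion seen as a drop in luminescence.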 The class given is functional.
A short description of assay [17]: MC4R antagonists, dose response, counter-screen for LGR2 antagonist project, cell-based, plate reader, cherry pick (AID 743444).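 Further: transfected HEK 293 cells stimulated with alpha-MSH peptide; potency of inhibitors of the alpha-MSH evoked signal.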 The class given is functional.

Sequence of Type-1 angiotensin II receptor (P30556 whole entry): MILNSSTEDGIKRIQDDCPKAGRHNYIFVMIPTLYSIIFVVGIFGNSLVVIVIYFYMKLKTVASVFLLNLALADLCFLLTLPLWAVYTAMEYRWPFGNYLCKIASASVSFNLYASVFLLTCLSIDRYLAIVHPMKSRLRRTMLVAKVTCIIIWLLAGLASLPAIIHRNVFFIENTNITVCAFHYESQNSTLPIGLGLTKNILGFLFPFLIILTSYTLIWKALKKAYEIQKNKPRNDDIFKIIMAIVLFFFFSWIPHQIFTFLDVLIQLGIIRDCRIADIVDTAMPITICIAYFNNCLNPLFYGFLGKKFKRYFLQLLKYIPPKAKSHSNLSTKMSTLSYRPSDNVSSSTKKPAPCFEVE
Sequence of Beta-galactosidase (Q8VNN2 whole entry): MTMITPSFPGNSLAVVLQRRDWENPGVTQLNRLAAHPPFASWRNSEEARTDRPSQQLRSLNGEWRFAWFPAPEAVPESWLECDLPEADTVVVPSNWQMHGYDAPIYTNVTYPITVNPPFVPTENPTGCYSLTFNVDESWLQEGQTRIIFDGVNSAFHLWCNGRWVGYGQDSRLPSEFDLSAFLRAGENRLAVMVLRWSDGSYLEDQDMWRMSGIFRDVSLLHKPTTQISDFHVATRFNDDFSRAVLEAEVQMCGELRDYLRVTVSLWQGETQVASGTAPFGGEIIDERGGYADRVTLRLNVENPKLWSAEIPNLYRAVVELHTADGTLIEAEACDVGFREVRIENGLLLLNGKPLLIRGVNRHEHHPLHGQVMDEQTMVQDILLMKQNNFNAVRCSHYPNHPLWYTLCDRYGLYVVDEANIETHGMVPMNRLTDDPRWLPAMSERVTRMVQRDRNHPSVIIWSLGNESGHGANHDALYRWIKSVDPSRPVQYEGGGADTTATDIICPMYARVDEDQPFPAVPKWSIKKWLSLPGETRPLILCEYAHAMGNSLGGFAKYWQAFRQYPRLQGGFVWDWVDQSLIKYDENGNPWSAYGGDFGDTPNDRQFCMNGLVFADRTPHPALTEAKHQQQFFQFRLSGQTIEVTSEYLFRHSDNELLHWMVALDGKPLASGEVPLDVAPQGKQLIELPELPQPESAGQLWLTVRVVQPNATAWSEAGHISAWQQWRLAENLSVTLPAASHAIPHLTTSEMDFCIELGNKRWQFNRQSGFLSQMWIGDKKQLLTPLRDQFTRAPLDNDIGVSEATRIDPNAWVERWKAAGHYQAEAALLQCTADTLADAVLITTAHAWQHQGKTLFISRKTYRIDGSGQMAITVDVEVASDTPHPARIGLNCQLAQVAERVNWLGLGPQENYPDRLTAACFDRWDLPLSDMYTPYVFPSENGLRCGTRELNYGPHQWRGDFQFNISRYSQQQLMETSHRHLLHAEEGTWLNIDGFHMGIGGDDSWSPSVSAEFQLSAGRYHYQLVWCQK
Sequence of Procathepsin L (P07711 whole entry, the tested form may be a part): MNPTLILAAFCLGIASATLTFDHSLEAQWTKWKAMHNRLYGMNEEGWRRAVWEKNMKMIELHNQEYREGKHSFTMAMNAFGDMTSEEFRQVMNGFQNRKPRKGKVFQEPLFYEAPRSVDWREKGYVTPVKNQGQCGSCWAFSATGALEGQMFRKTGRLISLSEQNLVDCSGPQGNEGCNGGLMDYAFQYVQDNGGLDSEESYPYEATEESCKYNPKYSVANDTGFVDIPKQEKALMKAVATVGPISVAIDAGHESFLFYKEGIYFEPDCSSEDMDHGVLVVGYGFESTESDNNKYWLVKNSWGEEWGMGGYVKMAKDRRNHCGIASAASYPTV

Regarding `Cc1nn(-c2ccccc2)c(Cl)c1C(=O)N1CCN(C)CC1`, the IC50 (with HEK293 [1]; in assay [2]) was > 67.5 µM (inactive) throughout.

On to `Cc1ccc(NC(=O)c2ccccc2F)c(NC(=O)c2ccccc2F)c1`, for which the IC50 (in the assay with HEK293 [1]; in assay [2]) was > 67.5 µM (inactive) throughout.

For `ON1C(c2ccc(Cl)cc2Cl)N(O)[C@H]2CCCC[C@H]21` (stereo partly drawn), the EC50 at Beta-galactosidase was > 40 µM (inactive); in assay [4], > 53 µM (inactive). Further, the values for the IC50 in assay [3] and in [5] were 17.7 µM (active) and > 47.1 µM (inactive), respectively.

`CC(C(=O)OCC(=O)c1cccc([N+](=O)[O-])c1)N1C(=O)C2C3CCC(C3)C2C1=O` (stereo not drawn): the EC50 on Beta-galactosidase is > 40 µM (inactive). In addition, the IC50 in assay [3] was 24.4 µM (not active).

As to `CCC(=O)NC(c1ccc(N(C)C)cc1)c1ccc2cccnc2c1O` (stereo not drawn), the results for the IC50 in the assay with Jurkat [6], in the assay on HEK293 [7] and with HEK293 [8] were 2.67 µM (active), 7 µM (active) and 18.4 µM (active), respectively.

As to `COc1ccc(C(NC(=O)CC(C)C)c2ccc3cccnc3c2O)cc1OC` (stereo not drawn), the IC50 in the assay on Jurkat [6] was 5.48 µM (active); with HEK293 [7] it was 6.6 µM (active); with HEK293 [8] it was 20.1 µM (inactive).

`O=C(Nc1ccc(Cl)cc1)Nc1cccc(C(=O)O)c1`: the AC50 in assay [9] was 3.79 µM (active); in assay [11], 2.95 µM (active); in assay [12] it was 2.93 µM (active); in [13], > 52 µM (inactive); in assay [15] it was 2.22 µM (active); in assay [16] it was 2.51 µM (active). Moreover, the AC50 in [17] is 1.88 µM (active). Further, the IC50 in the assay with Jurkat [10] is 3.35 µM (active); against Procathepsin L, > 59.6 µM (not active); at Leucine aminopeptidase, < 1 µM (active); in [14], > 80 µM (inactive); at Aspartyl aminopeptidase, > 73.5 µM (not active).
